Data on 28 compounds can be found in patent US10668067B2, “Pyridine sulfonamides” (AMGEN INC., priority 2016, dated 2020).

For the test, the target named is human Nav1.7 (Homo sapiens (Human), UniProt Q15858). Put plainly: Nav 1.7 In Vitro PX Assay (PatchXpress whole cell voltage clamp). The format is cell-based. To be noted: in-vitro Nav 1.7 PX data. As to the method: HEK 293 cells stably transfected with human Nav1.7 were recorded in whole cell voltage clamp mode with the PatchXpress automated electrophysiology system (Molecular Devices, LLC, Sunnyvale, Calif.). Compound effects were measured on a partially inactivated state of the sodium channel. Cells were clamped to a holding potential yielding 20 to 50% inactivation. To elicit sodium current, channels were activated by pulsing to −10 mV for 20 msec. This voltage protocol was repeated at a rate of 0.1 Hz throughout the experiment. A single concentration of test compound was applied to cells for a duration of 3 minutes. Peak sodium current was measured at the end of the compound addition period to determine percent inhibition. Three to five cells were tested per concentration, and IC50 curves were fitted to percent inhibition as a function of concentration.
Sequence of human Nav1.7 (Q15858 whole entry): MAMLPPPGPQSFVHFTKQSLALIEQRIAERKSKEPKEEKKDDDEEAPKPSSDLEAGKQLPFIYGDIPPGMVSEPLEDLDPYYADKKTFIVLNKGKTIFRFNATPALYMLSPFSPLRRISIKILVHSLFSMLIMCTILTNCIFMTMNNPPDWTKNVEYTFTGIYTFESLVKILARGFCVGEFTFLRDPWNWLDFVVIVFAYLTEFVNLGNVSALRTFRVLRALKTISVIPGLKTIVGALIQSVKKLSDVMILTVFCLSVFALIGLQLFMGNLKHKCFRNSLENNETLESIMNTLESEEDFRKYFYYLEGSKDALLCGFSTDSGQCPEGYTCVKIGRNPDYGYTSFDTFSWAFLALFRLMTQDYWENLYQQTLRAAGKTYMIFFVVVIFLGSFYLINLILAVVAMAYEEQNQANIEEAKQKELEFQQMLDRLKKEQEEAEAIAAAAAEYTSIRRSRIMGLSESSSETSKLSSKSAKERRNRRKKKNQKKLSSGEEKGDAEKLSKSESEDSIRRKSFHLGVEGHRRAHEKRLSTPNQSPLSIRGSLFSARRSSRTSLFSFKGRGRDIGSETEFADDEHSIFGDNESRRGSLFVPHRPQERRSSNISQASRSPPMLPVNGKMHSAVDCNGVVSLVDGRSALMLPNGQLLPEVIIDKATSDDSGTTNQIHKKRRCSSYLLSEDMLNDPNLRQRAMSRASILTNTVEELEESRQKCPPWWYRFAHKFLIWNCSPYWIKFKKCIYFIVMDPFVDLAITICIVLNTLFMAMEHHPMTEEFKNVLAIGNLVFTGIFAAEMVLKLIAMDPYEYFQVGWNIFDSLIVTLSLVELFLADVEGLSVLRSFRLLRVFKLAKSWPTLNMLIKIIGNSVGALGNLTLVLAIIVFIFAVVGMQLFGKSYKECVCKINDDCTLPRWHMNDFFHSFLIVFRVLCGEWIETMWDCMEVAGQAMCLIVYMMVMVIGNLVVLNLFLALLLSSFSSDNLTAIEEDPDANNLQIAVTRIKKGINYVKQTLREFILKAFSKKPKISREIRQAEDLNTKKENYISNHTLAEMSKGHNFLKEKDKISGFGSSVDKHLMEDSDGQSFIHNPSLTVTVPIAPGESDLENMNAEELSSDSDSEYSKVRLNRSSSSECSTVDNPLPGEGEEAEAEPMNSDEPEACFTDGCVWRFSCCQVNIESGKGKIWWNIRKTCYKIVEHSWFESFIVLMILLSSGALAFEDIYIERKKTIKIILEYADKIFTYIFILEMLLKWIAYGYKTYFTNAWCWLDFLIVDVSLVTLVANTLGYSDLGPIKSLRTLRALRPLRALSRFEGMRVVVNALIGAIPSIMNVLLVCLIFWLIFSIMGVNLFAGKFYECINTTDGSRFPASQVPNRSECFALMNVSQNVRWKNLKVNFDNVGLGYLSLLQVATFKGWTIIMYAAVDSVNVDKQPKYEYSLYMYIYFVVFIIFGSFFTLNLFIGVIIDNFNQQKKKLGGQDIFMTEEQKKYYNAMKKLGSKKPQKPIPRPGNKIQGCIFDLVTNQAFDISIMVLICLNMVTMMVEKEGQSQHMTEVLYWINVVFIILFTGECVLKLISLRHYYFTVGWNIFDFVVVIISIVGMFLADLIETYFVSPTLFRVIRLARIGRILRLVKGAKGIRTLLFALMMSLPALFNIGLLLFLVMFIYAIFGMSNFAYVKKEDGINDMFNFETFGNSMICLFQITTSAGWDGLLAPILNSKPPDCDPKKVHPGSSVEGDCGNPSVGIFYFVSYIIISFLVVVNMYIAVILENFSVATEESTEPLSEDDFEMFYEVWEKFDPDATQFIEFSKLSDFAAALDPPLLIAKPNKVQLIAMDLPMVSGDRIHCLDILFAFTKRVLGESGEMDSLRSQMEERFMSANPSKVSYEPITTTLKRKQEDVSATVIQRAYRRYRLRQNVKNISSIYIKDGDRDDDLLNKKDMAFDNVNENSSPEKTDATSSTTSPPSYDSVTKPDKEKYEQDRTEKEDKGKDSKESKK
With `CNC(=O)N(c1ccc(S(=O)(=O)Nc2ccon2)cn1)c1cc(Cl)c(-c2ccc(F)c(Cl)c2)cc1OC` [Example 1-60, 6-((2,3′-dichloro-4′-fluoro-5-methoxy-4-biphenylyl)(methylcarbamoyl)amino)-N-3-isoxazolyl-3-pyridinesulfonamide], the IC50 (as a rule, the midpoint of a concentration-inhibition curve) amounted to 19 nM.
The value for `CNC(=O)N(c1ccc(S(=O)(=O)Nc2ccon2)cn1)c1cc(Cl)c(-c2ccc(C)c(Cl)c2)cc1OC` [Example 1-61, 6-((2,3′-dichloro-5-methoxy-4′-methyl-4-biphenylyl)(methylcarbamoyl)amino)-N-3-isoxazolyl-3-pyridinesulfonamide] was 20 nM.
The compound `CNC(=O)N(c1ccc(S(=O)(=O)Nc2ccon2)cn1)c1cc(Cl)c(-c2ccc(C)c(F)c2)cc1OC` [Example 1-62, 6-((2-chloro-3′-fluoro-5-methoxy-4′-methyl-4-biphenylyl)(methylcarbamoyl)amino)-N-3-isoxazolyl-3-pyridinesulfonamide] gave a concentration for half-maximal inhibition (IC50) of 64 nM.
`CNC(=O)N(c1ccc(S(=O)(=O)Nc2ccon2)cn1)c1cc(Cl)c(-c2ccc(Cl)c(F)c2)cc1OC` [Example 1-63, 6-((2,4′-dichloro-3′-fluoro-5-methoxy-4-biphenylyl)(methylcarbamoyl)amino)-N-3-isoxazolyl-3-pyridinesulfonamide] came in with an IC50 of 28 nM.
For `CNC(=O)N(c1ccc(S(=O)(=O)Nc2ccon2)cn1)c1cc(Cl)c(-c2cc(OC)cc(OC)c2)cc1OC` [Example 1-64, 6-((2-chloro-3′,5,5′-trimethoxy-4-biphenylyl)(methylcarbamoyl)amino)-N-3-isoxazolyl-3-pyridinesulfonamide] the value was 78 nM; for `CNC(=O)N(c1ccc(S(=O)(=O)Nc2ccon2)cn1)c1cc(Cl)c(-c2ccc(F)c(F)c2)cc1OC` [Example 1-65, 6-((2-chloro-3′,4′-difluoro-5-methoxy-4-biphenylyl)(methylcarbamoyl)amino)-N-3-isoxazolyl-3-pyridinesulfonamide], 54 nM.
On to `CNC(=O)N(c1ccc(S(=O)(=O)Nc2ccon2)cn1)c1cc(Cl)c(-c2cc(OC)c(F)c(OC)c2)cc1OC` [Example 1-66, 6-((2-chloro-4′-fluoro-3′,5,5′-trimethoxy-4-biphenylyl)(methylcarbamoyl)amino)-N-3-isoxazolyl-3-pyridinesulfonamide], for which 59 nM corresponded to half-maximal inhibition (IC50).
On to `CCOc1cc(-c2cc(OC)c(N(C(=O)NC)c3ccc(S(=O)(=O)Nc4ccon4)cn3)cc2Cl)ccc1F` [Example 1-67, 6-((2-chloro-3′-ethoxy-4′-fluoro-5-methoxy-4-biphenylyl)(methylcarbamoyl)amino)-N-3-isoxazolyl-3-pyridinesulfonamide], for which inhibition was half-maximal at 34 nM (IC50).
`CNC(=O)N(c1ccc(S(=O)(=O)Nc2ccon2)cn1)c1cc(Cl)c(-c2cc(F)c(F)c(OC)c2)cc1OC` [Example 1-68, 6-((2-chloro-3′,4′-difluoro-5,5′-dimethoxy-4-biphenylyl)(methylcarbamoyl)amino)-N-3-isoxazolyl-3-pyridinesulfonamide] registered an IC50 of 23 nM.
With `CNC(=O)N(c1ccc(S(=O)(=O)Nc2ccon2)cn1)c1cc(Cl)c(-c2ccc(F)c(OC(F)(F)F)c2)cc1OC` [Example 1-69, 6-((2-chloro-4′-fluoro-5-methoxy-3′-(trifluoromethoxy)-4-biphenylyl)(methylcarbamoyl)amino)-N-3-isoxazolyl-3-pyridinesulfonamide], the IC50 was 6 nM.
For `CNC(=O)N(c1ccc(S(=O)(=O)Nc2ccon2)cn1)c1cc(Cl)c(-c2ccc(Cl)cc2)cc1OC` [Example 1-70, 6-((2,4′-dichloro-5-methoxy-4-biphenylyl)(methylcarbamoyl)amino)-N-3-isoxazolyl-3-pyridinesulfonamide], inhibition was half-maximal at 52 nM (IC50).
In turn, `CNC(=O)N(c1ccc(S(=O)(=O)Nc2ccon2)cn1)c1ccc(-c2ccc(F)c(C)c2)cc1OC` [Example 1-71, 6-((4′-fluoro-3-methoxy-3′-methyl-4-biphenylyl)(methylcarbamoyl)amino)-N-3-isoxazolyl-3-pyridinesulfonamide] showed an IC50 of 398 nM.
`CNC(=O)N(c1ccc(S(=O)(=O)Nc2ccon2)cn1)c1ccc(-c2cc(Cl)cc(OC)c2)cc1OC` [Example 1-72, 6-((3′-chloro-3,5′-dimethoxy-4-biphenylyl)(methylcarbamoyl)amino)-N-3-isoxazolyl-3-pyridinesulfonamide]: the IC50 worked out at 101 nM.
On to `CNC(=O)N(c1ccc(S(=O)(=O)Nc2ccon2)cn1)c1ccc(-c2ccc(Cl)c(C)c2)cc1OC` [Example 1-73, 6-((4′-chloro-3-methoxy-3′-methyl-4-biphenylyl)(methylcarbamoyl)amino)-N-3-isoxazolyl-3-pyridinesulfonamide], for which the IC50 was found to be 65 nM.
For `CNC(=O)N(c1ccc(S(=O)(=O)Nc2ccon2)cn1)c1ccc(-c2cc(F)cc(Cl)c2)cc1OC` [Example 1-74, 6-((3′-chloro-5′-fluoro-3-methoxy-4-biphenylyl)(methylcarbamoyl)amino)-N-3-isoxazolyl-3-pyridinesulfonamide] the value was 84 nM; for `CNC(=O)N(c1ccc(S(=O)(=O)Nc2ncccn2)cn1)c1cc(Cl)c(-c2ccc(Cl)c(C#N)c2)cc1OC` [Example 1-75, 6-((2,4′-dichloro-3′-cyano-5-methoxy-4-biphenylyl)(methylcarbamoyl)amino)-N-2-pyrimidinyl-3-pyridinesulfonamide], 106 nM; for `CNC(=O)N(c1ccc(S(=O)(=O)Nc2ncccn2)cn1)c1cc(Cl)c(-c2ccc(F)c(F)c2)cc1OC` [Example 1-76, 6-((2-chloro-3′,4′-difluoro-5-methoxy-4-biphenylyl)(methylcarbamoyl)amino)-N-2-pyrimidinyl-3-pyridinesulfonamide], 116 nM.
The compound `CNC(=O)N(c1ccc(S(=O)(=O)Nc2ncccn2)cn1)c1cc(Cl)c(-c2ccc(Cl)c(OC)c2)cc1OC` [Example 1-77, 6-((2,4′-dichloro-3′,5-dimethoxy-4-biphenylyl)(methylcarbamoyl)amino)-N-2-pyrimidinyl-3-pyridinesulfonamide] displayed an IC50 of 70 nM.
For `CNC(=O)N(c1ccc(S(=O)(=O)Nc2ncccn2)cn1)c1cc(Cl)c(-c2cc(Cl)cc(C#N)c2)cc1OC` [Example 1-78, 6-((2,3′-dichloro-5′-cyano-5-methoxy-4-biphenylyl)(methylcarbamoyl)amino)-N-2-pyrimidinyl-3-pyridinesulfonamide], the IC50 was determined as 123 nM.
With `CNC(=O)N(c1ccc(S(=O)(=O)Nc2ncccn2)cn1)c1cc(Cl)c(-c2cc(OC)cc(OC)c2)cc1OC` [Example 1-79, 6-((2-chloro-3′,5,5′-trimethoxy-4-biphenylyl)(methylcarbamoyl)amino)-N-2-pyrimidinyl-3-pyridinesulfonamide], the IC50 turned out to be 166 nM.
For `CNC(=O)N(c1ccc(S(=O)(=O)Nc2ncccn2)cn1)c1cc(F)c(-c2ccc(Cl)c(C)c2)cc1OC` [Example 1-80, 6-((4′-chloro-2-fluoro-5-methoxy-3′-methyl-4-biphenylyl)(methylcarbamoyl)amino)-N-2-pyrimidinyl-3-pyridinesulfonamide] the value was 39 nM; for `CNC(=O)N(c1ccc(S(=O)(=O)Nc2ncccn2)cn1)c1cc(F)c(-c2cccc(C(F)(F)F)c2)cc1OC` [Example 1-81, 6-((2-fluoro-5-methoxy-3′-(trifluoromethyl)-4-biphenylyl)(methylcarbamoyl)amino)-N-2-pyrimidinyl-3-pyridinesulfonamide], 143 nM; for `CNC(=O)N(c1ccc(S(=O)(=O)Nc2ncccn2)cn1)c1cc(F)c(-c2cc(OC)cc(C(F)(F)F)c2)cc1OC` [Example 1-82, 6-((2-fluoro-3′,5-dimethoxy-5′-(trifluoromethyl)-4-biphenylyl)(methylcarbamoyl)amino)-N-2-pyrimidinyl-3-pyridinesulfonamide], 18 nM.
As for `CNC(=O)N(c1ccc(S(=O)(=O)Nc2ncccn2)cn1)c1cc(F)c(-c2ccc(Cl)c(Cl)c2)cc1OC` [Example 1-83, 6-((3′,4′-dichloro-2-fluoro-5-methoxy-4-biphenylyl)(methylcarbamoyl)amino)-N-2-pyrimidinyl-3-pyridinesulfonamide], it took 32 nM to reach half-maximal inhibition (IC50).
Compound `CNC(=O)N(c1ccc(S(=O)(=O)Nc2ncccn2)cn1)c1cc(F)c(-c2cccc(OC(F)(F)F)c2)cc1OC` [Example 1-84, 6-((2-fluoro-5-methoxy-3′-(trifluoromethoxy)-4-biphenylyl)(methylcarbamoyl)amino)-N-2-pyrimidinyl-3-pyridinesulfonamide] displayed an IC50 of 62 nM.
For the compound `CNC(=O)N(c1ccc(S(=O)(=O)Nc2ncccn2)cn1)c1cc(F)c(-c2ccc(F)c(C(F)(F)F)c2)cc1OC` [Example 1-85, 6-((2,4′-difluoro-5-methoxy-3′-(trifluoromethyl)-4-biphenylyl)(methylcarbamoyl)amino)-N-2-pyrimidinyl-3-pyridinesulfonamide], the concentration for half-maximal inhibition (IC50) was 32 nM.
`CNC(=O)N(c1ccc(S(=O)(=O)Nc2ncccn2)cn1)c1cc(F)c(-c2cc(F)c(F)c(F)c2)cc1OC` [Example 1-86, 6-((methylcarbamoyl)(2,3′,4′,5′-tetrafluoro-5-methoxy-4-biphenylyl)amino)-N-2-pyrimidinyl-3-pyridinesulfonamide] showed an IC50 of 220 nM.
`CNC(=O)N(c1ccc(S(=O)(=O)Nc2ncccn2)cn1)c1cc(F)c(-c2ccc(F)c(OCC(F)(F)F)c2)cc1OC` [Example 1-88, 6-((2,4′-difluoro-5-methoxy-3′-(2,2,2-trifluoroethoxy)-4-biphenylyl)(methylcarbamoyl)amino)-N-2-pyrimidinyl-3-pyridinesulfonamide] showed an IC50 of 40 nM.
